Reference: patent US10770169B2, “Method of providing a treatment to a subject based on a dynamic pathway map” (THE REGENTS OF THE UNIVERSITY OF CALIFORNIA, priority 2010, dated 2020)
Where two headings read alike, the source gives them in different places.

Test system: panel of 55 breast cancer cell lines
Test: Cell growth inhibition assay (Cell Titer Glo, 72 h, 9 doses; GI50, TGI, LC50)
Assay type: cell-based, human
Conditions: Homo sapiens, read-out: GI50 (converted)
[1] = AU565, AU565 cell line, censored GI50 values
[2] = BT-474, BT474 cell line, censored GI50 values
[3] = BT-483, BT483 cell line, censored GI50 values
[4] = BT-549, BT549 cell line, censored GI50 values
[5] = HCC38, HCC38 cell line, censored GI50 values
[6] = HCC70, HCC70 cell line, censored GI50 values
[7] = HCC202, HCC202 cell line, censored GI50 values
[8] = HCC1187, HCC1187 cell line, censored GI50 values
[9] = HCC1419, HCC1419 cell line, censored GI50 values
[10] = HCC1428, HCC1428 cell line, censored GI50 values
[11] = HCC1500, HCC1500 cell line, censored GI50 values
[12] = HCC1806, HCC1806 cell line, censored GI50 values
[13] = HCC1937, HCC1937 cell line, censored GI50 values
[14] = HCC1954, HCC1954 cell line, censored GI50 values
[15] = HCC2185 cell line, censored GI50 values
[16] = HCC3153 cell line, censored GI50 values
[17] = MCF7, MCF7 cell line, censored GI50 values
[18] = MDA-MB-134-VI, MDAMB134VI cell line, censored GI50 values
[19] = MDA-MB-175-VII, MDAMB175VII cell line, censored GI50 values
[20] = MDA-MB-231, MDAMB231 cell line, censored GI50 values
[21] = MDA-MB-361, MDAMB361 cell line, censored GI50 values
[22] = MDA-MB-415, MDAMB415 cell line, censored GI50 values
[23] = MDA-MB-468, MDAMB468 cell line, censored GI50 values
[24] = SUM52PE, SUM52PE cell line, censored GI50 values
[25] = SUM149PT, SUM149PT cell line, censored GI50 values
[26] = SUM1315MO2, SUM1315MO2 cell line, censored GI50 values
[27] = SUM-159-PT, SUM159PT cell line, censored GI50 values
[28] = UACC-812, UACC812 cell line, censored GI50 values

Q: How did the GI50 (600MPE cell line, censored GI50 values) turn out when `COc1cccc2c1C(=O)c1c(O)c3c(c(O)c1C2=O)C[C@@](O)(C(=O)CO)C[C@@H]3O[C@H]1C[C@H](N)[C@@H](O)[C@H](C)O1` [Epirubicin] was run?
A: 347 nM

Q: And the GI50 [1]?
A: 145 nM

Q: What about the GI50 (AU565, cell line AU565) of the same molecule?
A: 145 nM

Q: What about the GI50 [2] of the same molecule?
A: 6760 nM

Q: What about the GI50 (BT-474, cell line BT474) of the same molecule?
A: 6760 nM

Q: And the GI50 [3]?
A: 166 nM

Q: What about the GI50 (BT-483, cell line BT483) of the same molecule?
A: 166 nM

Q: And the GI50 [4]?
A: 204 nM

Q: What about the GI50 (BT-549, cell line BT549) of the same molecule?
A: 204 nM

Q: What about the GI50 [5] of the same molecule?
A: 93.3 nM

Q: What about the GI50 (HCC38, cell line HCC38) of the same molecule?
A: 93.3 nM

Q: What about the GI50 [6] of the same molecule?
A: 417 nM

Q: And the GI50 (HCC70, cell line HCC70)?
A: 417 nM

Q: What about the GI50 [7] of the same molecule?
A: 603 nM

Q: What about the GI50 (HCC202, cell line HCC202) of the same molecule?
A: 603 nM

Q: And the GI50 (HCC1143, HCC1143 cell line, censored GI50 values)?
A: 288 nM

Q: And the GI50 (HCC1143, cell line HCC1143)?
A: 288 nM

Q: What about the GI50 [8] of the same molecule?
A: 1000 nM

Q: And the GI50 (HCC1187, cell line HCC1187)?
A: 1000 nM

Q: What about the GI50 (HCC1395, HCC1395 cell line, censored GI50 values) of the same molecule?
A: 447 nM

Q: What about the GI50 (HCC1395, cell line HCC1395) of the same molecule?
A: 447 nM

Q: And the GI50 [9]?
A: 708 nM

Q: And the GI50 (HCC1419, cell line HCC1419)?
A: 708 nM

Q: What about the GI50 [10] of the same molecule?
A: 1350 nM

Q: And the GI50 (HCC1428, cell line HCC1428)?
A: 1350 nM

Q: And the GI50 [11]?
A: 245 nM

Q: And the GI50 (HCC1500, cell line HCC1500)?
A: 245 nM

Q: What about the GI50 [12] of the same molecule?
A: 166 nM

Q: And the GI50 (HCC1806, cell line HCC1806)?
A: 166 nM

Q: What about the GI50 [13] of the same molecule?
A: 204 nM

Q: And the GI50 (HCC1937, cell line HCC1937)?
A: 204 nM

Q: And the GI50 [14]?
A: 200 nM

Q: What about the GI50 (HCC1954, cell line HCC1954) of the same molecule?
A: 200 nM

Q: What about the GI50 [15] of the same molecule?
A: 126 nM

Q: What about the GI50 [16] of the same molecule?
A: 646 nM

Q: What about the GI50 (LY2 cell line, censored GI50 values) of the same molecule?
A: 214 nM

Q: And the GI50 [17]?
A: 355 nM

Q: And the GI50 (MCF7, cell line MCF7)?
A: 355 nM

Q: What about the GI50 [18] of the same molecule?
A: 1050 nM

Q: And the GI50 (MDA-MB-157, MDAMB157 cell line, censored GI50 values)?
A: 550 nM

Q: What about the GI50 (MDA-MB-157, cell line MDAMB157) of the same molecule?
A: 550 nM

Q: And the GI50 [19]?
A: 100 nM

Q: What about the GI50 [20] of the same molecule?
A: 269 nM

Q: What about the GI50 (MDA-MB-231, cell line MDAMB231) of the same molecule?
A: 269 nM

Q: What about the GI50 [21] of the same molecule?
A: 224 nM

Q: And the GI50 (MDA-MB-361, cell line MDAMB361)?
A: 224 nM

Q: What about the GI50 [22] of the same molecule?
A: 263 nM

Q: And the GI50 (MDA-MB-415, cell line MDAMB415)?
A: 263 nM

Q: What about the GI50 (MDA-MB-436, MDAMB436 cell line, censored GI50 values) of the same molecule?
A: 708 nM

Q: And the GI50 (MDA-MB-436, cell line MDAMB436)?
A: 708 nM

Q: What about the GI50 (MDA-MB-453, MDAMB453 cell line, censored GI50 values) of the same molecule?
A: 224 nM

Q: What about the GI50 (MDA-MB-453, cell line MDAMB453) of the same molecule?
A: 224 nM

Q: What about the GI50 [23] of the same molecule?
A: 692 nM

Q: What about the GI50 (MDA-MB-468, cell line MDAMB468) of the same molecule?
A: 692 nM

Q: What about the GI50 [24] of the same molecule?
A: 295 nM

Q: What about the GI50 (SUM52PE, cell line SUM52PE) of the same molecule?
A: 295 nM

Q: What about the GI50 [25] of the same molecule?
A: 219 nM

Q: And the GI50 (SUM149PT, cell line SUM149PT)?
A: 219 nM

Q: What about the GI50 (SUM185PE, SUM185PE cell line, censored GI50 values) of the same molecule?
A: 407 nM

Q: And the GI50 (SUM185PE, cell line SUM185PE)?
A: 407 nM

Q: And the GI50 [26]?
A: 36.3 nM

Q: And the GI50 [27]?
A: 141 nM

Q: And the GI50 (SUM-159-PT, cell line SUM159PT)?
A: 141 nM

Q: And the GI50 [28]?
A: 251 nM

Q: What about the GI50 (UACC-812, cell line UACC812) of the same molecule?
A: 251 nM

Q: And the GI50 (UACC-893, UACC893 cell line, censored GI50 values)?
A: 776 nM

Q: What about the GI50 (UACC-893, cell line UACC893) of the same molecule?
A: 776 nM

Q: And the GI50 (ZR-75-1, ZR751 cell line, censored GI50 values)?
A: 251 nM

Q: And the GI50 (ZR-75-1, cell line ZR751)?
A: 251 nM

Q: And the GI50 (ZR-75B, ZR75B cell line, censored GI50 values)?
A: 115 nM

Q: And the GI50 (ZR-75B, cell line ZR75B)?
A: 115 nM

Q: And the GI50 (cell line 600MPE)?
A: 347 nM

Q: And the GI50 (cell line HCC2185)?
A: 126 nM

Q: What about the GI50 (cell line HCC3153) of the same molecule?
A: 646 nM

Q: What about the GI50 (cell line LY2) of the same molecule?
A: 214 nM

Q: What about the GI50 (cell line MDAMB134V) of the same molecule?
A: 1050 nM

Q: And the GI50 (cell line MDAMB175V)?
A: 100 nM

Q: What about the GI50 (cell line SUM1315MO) of the same molecule?
A: 36.3 nM

Q: What does the source list for `CO[C@H]1C[C@@H]2CC[C@@H](C)[C@@](O)(O2)C(=O)C(=O)N2CCCC[C@H]2C(=O)O[C@H]([C@H](C)C[C@@H]2CC[C@@H](O)[C@H](OC)C2)CC(=O)[C@H](C)/C=C(\C)[C@@H](O)[C@@H](OC)C(=O)[C@H](C)C[C@H](C)/C=C/C=C/C=C/1C` [Rapamycin]?
A: GI50 [1]: 31.6 nM; GI50 (AU565, cell line AU565): 31.6 nM; GI50 (BT-20, BT20 cell line, censored GI50 values): 13.5 nM; GI50 (BT-20, cell line BT20): 13.5 nM; GI50 [2]: 15.1 nM; GI50 (BT-474, cell line BT474): 15.1 nM; GI50 [3]: 1.66 nM; GI50 (BT-483, cell line BT483): 1.66 nM; GI50 [4]: 33100 nM; GI50 (BT-549, cell line BT549): 33100 nM; GI50 (CAMA-1, CAMA1 cell line, censored GI50 values): 15.1 nM; GI50 (CAMA-1, cell line CAMA1): 15.1 nM; GI50 [5]: 33.9 nM; GI50 (HCC38, cell line HCC38): 33.9 nM; GI50 [6]: 120 nM; GI50 (HCC70, cell line HCC70): 120 nM; GI50 [7]: 5.01 nM; GI50 (HCC202, cell line HCC202): 5.01 nM; GI50 [8]: 32.4 nM; GI50 (HCC1187, cell line HCC1187): 32.4 nM; GI50 [9]: 4.37 nM; GI50 (HCC1419, cell line HCC1419): 4.37 nM; GI50 [10]: 51.3 nM; GI50 (HCC1428, cell line HCC1428): 51.3 nM; GI50 [11]: 93300 nM; GI50 (HCC1500, cell line HCC1500): 93300 nM; GI50 [12]: 66100 nM; GI50 (HCC1806, cell line HCC1806): 66100 nM; GI50 [13]: 1230 nM; GI50 (HCC1937, cell line HCC1937): 1230 nM; GI50 [14]: 3.55 nM; GI50 (HCC1954, cell line HCC1954): 3.55 nM; GI50 [15]: 1.62 nM; GI50 [16]: 5620 nM; GI50 [17]: 145 nM; GI50 (MCF7, cell line MCF7): 145 nM; GI50 [18]: 6.76 nM; GI50 (MDA-MB-157, cell line MDAMB157): 166000 nM; GI50 [19]: 3.72 nM; GI50 [20]: 3550 nM; GI50 (MDA-MB-231, cell line MDAMB231): 3550 nM; GI50 [21]: 741 nM; GI50 (MDA-MB-361, cell line MDAMB361): 741 nM; GI50 [22]: 2.09 nM; GI50 (MDA-MB-415, cell line MDAMB415): 2.09 nM; GI50 (MDA-MB-436, cell line MDAMB436): 166000 nM; GI50 [23]: 2820 nM; GI50 (MDA-MB-468, cell line MDAMB468): 2820 nM; GI50 (SK-BR-3, SKBR3 cell line, censored GI50 values): 60.3 nM; GI50 (SK-BR-3, cell line SKBR3): 60.3 nM; GI50 (SUM44PE cell line, censored GI50 values): 0.55 nM; GI50 [24]: 3.02 nM; GI50 (SUM52PE, cell line SUM52PE): 3.02 nM; GI50 [25]: 9330 nM; GI50 (SUM149PT, cell line SUM149PT): 9330 nM; GI50 (SUM225CWN, SUM225CWN cell line, censored GI50 values): 16.6 nM; GI50 (SUM225CWN, cell line SUM225CWN): 16.6 nM; GI50 [26]: 3310 nM; GI50 [27]: 724 nM; GI50 (SUM-159-PT, cell line SUM159PT): 724 nM; GI50 (T47D, T47D cell line, censored GI50 values): 490 nM; GI50 (T47D, cell line T47D): 490 nM; GI50 [28]: 46.8 nM; GI50 (UACC-812, cell line UACC812): 46.8 nM; GI50 (UACC-893, cell line UACC893): 166000 nM; GI50 (cell line HCC2185): 1.62 nM; GI50 (cell line HCC3153): 5620 nM; GI50 (cell line MDAMB134V): 6.76 nM; GI50 (cell line MDAMB175V): 3.72 nM; GI50 (cell line SUM44PE): 0.55 nM; GI50 (cell line SUM1315MO): 3310 nM
